Structures are written as SMILES.

The nature of series [1]: Whole blood/plasma distribution ratio, mouse. In kind it is in vitro ADME.
Method: After incubation for 20 min, a portion of the whole blood was centrifuged at 2500× g for 10 min at 4 °C to separate plasma; another portion of the whole blood was subjected to three cycles of freeze–thawing and ultrasonicated for 10 min to disrupt cells. Equal volumes of plasma and whole blood samples were added to the whole blood and plasma specimens, respectively, followed by protein precipitation with acetonitrile containing an internal standard (IS). […] The RED inserts were placed in the matching incubation plate: 200 µL of drug-containing matrix were added to the sample chamber, and 400 µL of PBS buffer (pH: 7.4) were added to the buffer chamber. After incubation in a constant-temperature shaking incubator for 6 h (37 °C), samples from the sample chamber and buffer chamber were diluted 1:1 with PBS or matrix, respectively, and proteins were precipitated with acetonitrile containing IS.
For series [2], the target named is T1, CYP enzymes involved in melatonin 6-hydroxylation (Rattus norvegicus, UniProt P04799).
T1 sequence (P04799 2-513): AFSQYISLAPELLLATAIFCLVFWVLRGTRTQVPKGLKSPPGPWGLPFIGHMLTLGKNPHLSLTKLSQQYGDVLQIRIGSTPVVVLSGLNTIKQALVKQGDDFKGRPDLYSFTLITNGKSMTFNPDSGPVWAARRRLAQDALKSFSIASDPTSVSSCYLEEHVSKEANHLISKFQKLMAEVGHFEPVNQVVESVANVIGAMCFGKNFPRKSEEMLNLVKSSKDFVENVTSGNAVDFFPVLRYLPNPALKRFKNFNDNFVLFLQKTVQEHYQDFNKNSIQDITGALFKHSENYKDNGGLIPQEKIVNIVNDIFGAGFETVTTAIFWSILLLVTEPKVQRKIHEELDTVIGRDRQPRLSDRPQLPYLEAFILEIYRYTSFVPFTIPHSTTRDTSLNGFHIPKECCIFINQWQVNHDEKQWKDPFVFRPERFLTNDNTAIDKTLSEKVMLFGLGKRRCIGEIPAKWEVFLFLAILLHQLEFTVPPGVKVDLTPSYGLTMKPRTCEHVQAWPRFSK
The experiment in a line: Competitive inhibition of CBD on MT 6-hydroxylation, rat liver microsomes. In kind it is in vitro ADME. The following applies: probe melatonin (MT) 1 μM, 6-hydroxylation to 6-HMT. The method, then: (§1) The final incubation system contained 100 mM PBS, 5 mM MgCl2, 0.5 mg/mL liver microsomal protein, and 1 mM NADPH. […] The final concentration of MT was 1 μM.

The target of series [3] is T2, CYP enzymes involved in melatonin 6-hydroxylation (Canis lupus familiaris, UniProt P56592).
T2 sequence (P56592 2-512): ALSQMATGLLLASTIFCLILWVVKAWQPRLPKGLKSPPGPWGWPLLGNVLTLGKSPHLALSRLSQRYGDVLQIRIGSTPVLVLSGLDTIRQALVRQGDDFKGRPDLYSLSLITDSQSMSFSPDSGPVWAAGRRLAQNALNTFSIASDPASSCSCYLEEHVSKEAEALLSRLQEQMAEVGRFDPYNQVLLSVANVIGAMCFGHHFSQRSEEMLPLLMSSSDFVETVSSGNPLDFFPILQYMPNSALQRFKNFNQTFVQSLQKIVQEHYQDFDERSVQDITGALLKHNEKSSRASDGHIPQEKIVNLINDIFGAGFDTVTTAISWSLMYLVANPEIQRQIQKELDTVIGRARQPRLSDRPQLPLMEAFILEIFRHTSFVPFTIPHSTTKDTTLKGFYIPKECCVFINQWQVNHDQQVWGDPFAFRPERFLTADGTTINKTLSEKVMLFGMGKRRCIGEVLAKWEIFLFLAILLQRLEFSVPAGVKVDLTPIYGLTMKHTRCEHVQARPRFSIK
The experiment in a line: Competitive inhibition of CBD on MT 6-hydroxylation, beagle liver microsomes. In kind it is in vitro ADME. The following applies: dog, probe melatonin (MT) 1 μM, 6-hydroxylation to 6-HMT. How it is done: as §1

Series [4] deals with T3, CYP enzymes involved in melatonin 6-hydroxylation (Homo sapiens, UniProt P05177).
T3 construct: tissue XenoTech; host or cells: human liver microsomes
T3 sequence (P05177 1-516): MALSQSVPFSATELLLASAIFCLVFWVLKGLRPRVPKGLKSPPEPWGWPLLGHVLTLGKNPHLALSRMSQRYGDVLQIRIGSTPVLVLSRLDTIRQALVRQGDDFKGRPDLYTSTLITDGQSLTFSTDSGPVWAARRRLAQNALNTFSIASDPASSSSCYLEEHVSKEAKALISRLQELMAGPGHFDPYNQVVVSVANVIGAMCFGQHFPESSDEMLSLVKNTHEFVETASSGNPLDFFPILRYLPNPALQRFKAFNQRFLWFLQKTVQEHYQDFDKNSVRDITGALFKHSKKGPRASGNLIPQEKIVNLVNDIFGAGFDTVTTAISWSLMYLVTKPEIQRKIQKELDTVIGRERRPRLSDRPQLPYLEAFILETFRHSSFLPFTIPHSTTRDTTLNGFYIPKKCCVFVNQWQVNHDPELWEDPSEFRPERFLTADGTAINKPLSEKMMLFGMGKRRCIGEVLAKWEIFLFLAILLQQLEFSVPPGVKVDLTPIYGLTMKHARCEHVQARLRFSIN
In words: Competitive inhibition of CBD on MT 6-hydroxylation, human liver microsomes. Conditions: human, liver microsomes, probe melatonin (MT) 1 μM, 6-hydroxylation to 6-HMT. It is filed as in vitro ADME. How it is done: as §1
On the technique in general: Liver microsomes are a subcellular fraction often used to study metabolism.

In series [5] the target is T4, CYP enzymes involved in melatonin 6-hydroxylation, human liver microsomes (Homo sapiens, UniProt P05177).
T4 construct: tissue XenoTech; host or cells: human liver microsomes
T4 sequence (P05177 1-516): T3 sequence (P05177 1-516)
The description is as above. It is filed as in vitro ADME. The method, then: as §1

Series [6] deals with CYP enzymes mediating MT 6-hydroxylation in rat liver microsomes. In words: Irreversible (mechanism-based) inhibition of CBD on MT 6-hydroxylation, rat liver microsomes. It is filed as in vitro ADME. The method, then:
The reaction was initiated by adding the NADPH working solution that had also been pre-incubated for 5 min. […] After pre-incubation for different durations (0, 5, 10, 20, 30 min), 10 μL of the incubation mixture were transferred to a secondary incubation system containing 148 μL PBS and 2 μL MT working solution (final MT concentration: 200 μM). An additional 40 μL of NADPH were added, and the mixture was incubated for 30 min.
Irreversible inhibition assays: A semi-logarithmic curve was generated by plotting residual enzyme activity against pre-incubation time. The observed CYP enzyme inactivation rate (Kobs) was derived from the initial slope of the linear regression. The Lineweaver-Burk double reciprocal curve (1/Kobs vs. 1/I) described by Formula (8) was used to determine KI and Kinact: Kinact was estimated from the reciprocal of the Y-intercept, and KI was obtained from the negative reciprocal of the X-intercept.(8) 1/k=KI/Kinact1/I+1/Kinact

Series [7] has as its system CYP enzymes of MT 6-hydroxylation. In words: in vitro. Conditions: human, liver microsomes, probe melatonin (MT) 2 μM, 6-hydroxylation to 6-HMT, IC50 Ratio (IC50 shift), HLM, 30 min pre-incubation with/without NADPH.
Method: The reaction was initiated by adding pre-warmed NADPH (control groups lacked NADPH). The final incubation mixture contained 100 mM PBS, 5 mM MgCl2, liver microsomes (0.5 mg/mL), 1 mM NADPH, and 0.2% BSA. […] Concentrations in beagle dog microsomal incubations were 0, 0.125, 0.25, 0.5, 1, 2, 4, 8, 16, and 32 μM. […] All samples were prepared in triplicate. The concentration of 6-HMT was quantified using LC-MS/MS.
Competitive inhibition and time-dependent inhibition assays: The production of 6-HMT without inhibitors was set as 100%.
In series [8] the test system is liver microsomes from different species. In words: Effect of MT on in vitro metabolism of CBD in liver microsomes. In kind it is in vitro ADME, human, rat, beagle. The following applies: CBD 1 μM, MT up to 32 μM. How it is done:
The reaction was initiated by adding pre-incubated NADPH. The system contained liver microsomes at 0.5 mg/mL and NADPH at 1 mM (both diluted in PBS containing MgCl2). […] All samples were prepared in triplicate. The content of CBD was determined by LC-MS/MS.

For series [9] the following is noted: read-out: Km of MT 6-hydroxylation; HLM.
The nature of the next series: in vitro. Conditions: rat, liver microsomes.

As for `C=C(C)[C@@H]1CCC(C)=C[C@H]1c1c(O)cc(CCCCC)cc1O` [CBD, Cannabidiol], the “Rb/p (Ratio)” value in series [1] is 0.82 (0.19). Besides, the IC50 (in general, the midpoint of a concentration-inhibition curve) at 30 min is 13.5 to 36.5 µM in [2] (human, IC50, inhibition of MT 6-hydroxylation, hepatic microsomes of other species (not beagle)); 13.5 ± 1.15 µM in series [2] (IC50, inhibition of MT 6-hydroxylation, RLM, MT 1 μM); 9.51 µM in series [2] (IC50, rat, as listed in Table 6 for static DDI model); 650 nM in series [3] (IC50, beagle, as listed in Table 6 for static DDI model); 3420 ± 1300 nM in series [3] (IC50, inhibition of MT 6-hydroxylation, DLM, MT 1 μM); 3.39 µM in series [4]. In [5], this compound showed an IC50 of 16.5 ± 4.23 µM. The irreversible inhibitory effect result in [6] is listed as “no irreversible inhibitory effect was observed”. Also, the IC50 shift at 30 min in series [7] was 2.55.

Consider `COc1ccc2[nH]cc(CCNC(C)=O)c2c1` [MT, Melatonin], for which, in series [8], the “competitive inhibition of CBD metabolism by MT” value is on record as “does not exert competitive inhibition on CBD”. Besides, in series [9], the Km (as a rule, the substrate concentration at which the rate is half of its maximum) was 165 µM. The Km at 15 min in the series “in vitro” stood at 147 µM.
